In brackets after ≈: the same amount, converted by molar mass.
Experiments:
Assay type in all cases: in vivo
house flies = assay: Campbell's turn table oil spray test on house fly adults (Experimental Example 1); conditions: Musca domestica, 24 h, oil spray 5 ml, 10 min exposure, mortality after 1 day, read-out: LC50 (50 percent lethal concentration)
Experimental: The present compounds (1), (4), (8), (10), (14), (15), (20), (22), (32), (36), (38), (41), (44), (48), (50), (51), (52), (53), (61), (66), (68), (72), (73), (78), (80), (81), (90), (93) and (96), and chrysanthemic acid esters and pyrethric acid esters corresponding thereto were individually formulated by use of deodorized kerosene into oil sprays of various test concentrations.
Using the Campbell's turn table [disclosed in "Soap & Sanitary Chemicals," Vol. 14, No. 6, page 119 (1938)], 5 ml. of each of the oil sprays was sprayed. When 20 seconds had elapsed after the spraying, the shutter was opened, and adults of house flies (a group of about 100 flies) were exposed to the settling mist for 10 minutes and then transferred to an observation cage.
The above operation was repeated several times to measure the LC50 (50 percent lethal concentration) of each compound.

rice stem borer larvae = assay: micro dropping (topical) test on hibernating rice stem borer larvae (Experimental Example 3); conditions: topical in acetone, head and tail of larvae, 3 days
Text: The present compounds (1), (4), (8), (10), (14), (15), (22), (32), (36), (38), (41), (44), (48), (50), (51), (52), (53), (61), (66), (68), (72), (73), (80), (81), (90) and (93) and chrysanthemic acid esters corresponding thereto were individually dissolved in acetone to prepare insecticides of various concentrations. Using a micro dropping means, each of the insecticides was dropped to the head and tail of hibernating rice stem borer larvae.

[1] = tested on: Northern house mosquitoes; assay: knock-down test of oil sprays on Northern house mosquito adults in (70 cm)^3 glass chamber (Experimental Example 2)
Experimental: The present compounds (1), (6), (20), (22), (23), (25), (27), (29), (30), (31), (39), (42), (43), (45), (49), (53), (56), (62), (64), (78), (81), (83), (85), (87), (88) and (89), and chrysanthemic acid esters and pyrethric acid esters corresponding thereto were individually formulated by use of deodorized kerosene into oil sprays of various test concentrations.
About 20 adults of Northern house mosquitoes were liberated in a (70 cm)^3 glass chamber, and 0.7 ml. of each of the oil sprays was sprayed into the chamber under a pressure of 1.5 kg/cm^2 by use of a glass atomizer. Subsequently, the number of knocked-down mosquitoes was counted to calculate the KT50 (50 percent knock down time) of each compound.

Structure (SMILES)	LC50 (house flies)	LD50 (50 percent lethal dose) (rice stem borer larvae)	KT50 (50 percent knock down time) ([1]; concentration of oil spray 0.2%)	KT50 (50 percent knock down time) ([1]; concentration of oil spray 0.1%)
C=CC=CC1C(C(=O)OCc2coc(Cc3ccccc3)c2)C1(C)C (stereo not shown) [Present compound (50), 5-Benzyl-3-furylmethyl 2',2'-dimethyl-3'-(1",3"-butadienyl)-cyclopropanecarboxylate]	44 µg/mL (≈ 131 µM)	0.057 γ/larva	–	–
C=CCc1cc(C)c(COC(=O)C2C(C=C(C)C=C)C2(C)C)c(C)c1 (stereo not shown) [Present compound (36), 2,6-Dimethyl-4-allylbenzyl 2',2'-dimethyl-3'-(2"-methyl-1",3"-butadienyl)-cyclopropanecarboxylate]	390 µg/mL (≈ 1150 µM)	0.28 γ/larva	–	–
C=CC=CC1C(C(=O)OC(C#N)c2cccc(Oc3ccccc3)c2)C1(C)C (stereo not drawn) [Present compound (80), 3-Phenoxy-α-cyanobenzyl 2',2'-dimethyl-3'-(1",3"-butadienyl)-cyclopropanecarboxylate]	35 µg/mL (≈ 93.7 µM)	0.005 γ/larva	–	–
CC=CC=CC1C(C(=O)OCc2coc(Cc3ccccc3)c2)C1(C)C (stereo not shown) [Present compound (51), 5-Benzyl-3-furylmethyl 2',2'-dimethyl-3'-(1",3"-pentadienyl)-cyclopropanecarboxylate]	56 µg/mL (≈ 160 µM)	0.065 γ/larva	–	–
C#CCc1ccc(COC(=O)C2C(C=C(C)C)C2(C)C)cc1 (stereo not shown) [4-Propargylbenzyl chrysanthemate, reference compound]	850 µg/mL (≈ 2870 µM)	0.99 γ/larva	–	–
C=CC(C)=CC1C(C(=O)OCc2cc3c(o2)CCCC3)C1(C)C (stereo not shown) [Present compound (10), 4,5-Tetramethylenefurfuryl 2',2'-dimethyl-3'-(2"-methyl-1",3"-butadienyl)-cyclopropanecarboxylate]	120 µg/mL (≈ 382 µM)	0.32 γ/larva	–	–
CC(C)=CC1C(C(=O)OCc2ccc(Oc3ccccc3)o2)C1(C)C (stereo not shown) [5-Phenoxyfurfuryl chrysanthemate, reference compound]	85 µg/mL (≈ 250 µM)	0.12 γ/larva	–	–
CC(C)=CC(C)=CC1C(C(=O)OCc2cccc(Oc3ccccc3)c2)C1(C)C (stereo not shown) [Present compound (48), 3-Phenoxybenzyl 2',2'-dimethyl-3'-(2",4"-dimethyl-1",3"-pentadienyl)-cyclopropanecarboxylate]	140 µg/mL (≈ 358 µM)	0.56 γ/larva	–	–
C=CCc1cc(C)c(COC(=O)C2C(C=C(C)C)C2(C)C)c(C)c1 (stereo not shown) [2,6-Dimethyl-4-allylbenzyl chrysanthemate, reference compound]	650 µg/mL (≈ 1990 µM)	0.35 γ/larva	–	–
CC(C)=CC=CC1C(C(=O)OCc2coc(Cc3ccccc3)c2)C1(C)C (stereo not shown) [Present compound (52), 5-Benzyl-3-furylmethyl 2',2'-dimethyl-3'-(4"-methyl-1",3"-pentadienyl)-cyclopropanecarboxylate]	52 µg/mL (≈ 143 µM)	0.100 γ/larva	–	–
C=CC=CC1C(C(=O)OCc2c(C)cc(CC=C)cc2C)C1(C)C (stereo not shown) [Present compound (93), 2,6-Dimethyl-4-allylbenzyl 2',2'-dimethyl-3'-(1",3"-butadienyl)-cyclopropanecarboxylate]	230 µg/mL (≈ 709 µM)	0.21 γ/larva	–	–
CC=CC(C)=CC1C(C(=O)OCc2coc(Cc3ccccc3)c2)C1(C)C (stereo not shown) [Present compound (38), 5-Benzyl-3-furylmethyl 2',2'-dimethyl-3'-(2"-methyl-1",3"-pentadienyl)-cyclopropanecarboxylate]	66 µg/mL (≈ 181 µM)	0.102 γ/larva	–	–
C=CC(C)=CC1C(C(=O)OCc2ccc(Oc3ccccc3)o2)C1(C)C (stereo not shown) [Present compound (14), 5-Phenoxyfurfuryl 2',2'-dimethyl-3'-(2"-methyl-1",3"-butadienyl)-cyclopropanecarboxylate]	47 µg/mL (≈ 133 µM)	0.040 γ/larva	–	–
C=CC=CC1C(C(=O)OCC=C(Cl)Cc2ccccc2)C1(C)C (stereo not shown) [Present compound (90), 3-Chloro-4-phenyl-2-butene-1-yl 2',2'-dimethyl-3'-(1",3"-butadienyl)-cyclopropanecarboxylate]	170 µg/mL (≈ 514 µM)	0.43 γ/larva	–	–
CC=CC(C)=CC1C(C(=O)OCc2cccc(Oc3ccccc3)c2)C1(C)C (stereo not shown) [Present compound (41), 3-Phenoxybenzyl 2',2'-dimethyl-3'-(2"-methyl-1",3"-pentadienyl)-cyclopropanecarboxylate]	100 µg/mL (≈ 266 µM)	0.48 γ/larva	–	–
CC(C)=CC1C(C(=O)OCc2cccc(Oc3ccccc3)c2)C1(C)C (stereo not shown) [3-Phenoxybenzyl chrysanthemate, reference compound]	170 µg/mL (≈ 485 µM)	0.72 γ/larva	–	–
C#CCc1ccc(COC(=O)C2C(C=C(C)C=C)C2(C)C)cc1 (stereo not shown) [Present compound (8), 4-Propargylbenzyl 2',2'-dimethyl-3'-(2"-methyl-1",3"-butadienyl)-cyclopropanecarboxylate]	500 µg/mL (≈ 1620 µM)	0.37 γ/larva	–	–
COC(=O)C(C)=CC1C(C(=O)OCc2coc(Cc3ccccc3)c2)C1(C)C (stereo not shown) [5-Benzyl-3-furylmethyl pyrethrate, reference compound]	890 µg/mL (≈ 2330 µM)	–	182 s	–
C=CC(C)=CC1C(C(=O)OCc2cccc(Cc3ccccc3)c2)C1(C)C (stereo not shown) [Present compound (4), 3-Benzylbenzyl 2',2'-dimethyl-3'-(2"-methyl-1",3"-butadienyl)-cyclopropanecarboxylate]	110 µg/mL (≈ 305 µM)	0.71 γ/larva	–	–
C=CC=CC1C(C(=O)OCc2cccc(Cc3ccccc3)c2)C1(C)C (stereo not shown) [Present compound (61), 3-Benzylbenzyl 2',2'-dimethyl-3"-(1",3"-butadienyl)-cyclopropanecarboxylate]	90 µg/mL (≈ 260 µM)	0.50 γ/larva	–	–
CC(C)=CC(C)=CC1C(C(=O)OCc2coc(Cc3ccccc3)c2)C1(C)C (stereo not shown) [Present compound (44), 5-Benzyl-3-furylmethyl 2',2'-dimethyl-3'-(2",4"-dimethyl-1",3"-pentadienyl)-cyclopropanecarboxylate]	63 µg/mL (≈ 166 µM)	0.145 γ/larva	–	–
C=CC(C)=CC1C(C(=O)OCc2cccc(Oc3ccccc3)c2)C1(C)C (stereo not shown) [Present compound (15), 3-Phenoxybenzyl 2',2'-dimethyl-3'-(2"-methyl-1",3"-butadienyl)-cyclopropanecarboxylate]	68 µg/mL (≈ 188 µM)	0.29 γ/larva	–	–
C#CCc1ccc(C(C#C)OC(=O)C2C(C=CC=C)C2(C)C)o1 (stereo not drawn) [Present compound (78), 5-Propargyl-α-ethynylfurfuryl 2',2'-dimethyl-3'-(1",3"-butadienyl)-cyclopropanecarboxylate]	82 µg/mL (≈ 266 µM)	–	–	93 s
C=CC=CC1C(C(=O)OCc2cccc(Oc3ccccc3)c2)C1(C)C (stereo not shown) [Present compound (73), 3-Phenoxybenzyl 2',2'-dimethyl-3'-(1",3"-butadienyl)-cyclopropanecarboxylate]	60 µg/mL (≈ 172 µM)	0.26 γ/larva	–	–
C#CCc1ccc(COC(=O)C2C(C=CC=C)C2(C)C)cc1 (stereo not shown) [Present compound (66), 4-Propargylbenzyl 2',2'-dimethyl-3'-(1",3"-butadienyl)-cyclopropanecarboxylate]	350 µg/mL (≈ 1190 µM)	0.31 γ/larva	–	–
C=CC(C)=CC1C(C(=O)OCC=C(Cl)Cc2ccccc2)C1(C)C (stereo not shown) [Present compound (32), 3-Chloro-4-phenyl-2-butene-1-yl 2',2'-dimethyl-3'-(2"-methyl-1",3"-butadienyl)-cyclopropanecarboxylate]	190 µg/mL (≈ 551 µM)	0.52 γ/larva	–	–
CC(C)=CC1C(C(=O)OCC=C(Cl)Cc2ccccc2)C1(C)C (stereo not shown) [3-Chloro-4-phenyl-2-butene-1-yl chrysanthemate, reference compound]	360 µg/mL (≈ 1080 µM)	0.68 γ/larva	–	–
CC(C)=CC1C(C(=O)OCc2cc3c(o2)CCCC3)C1(C)C (stereo not shown) [4,5-Tetramethylenefurfuryl chrysanthemate, reference compound]	160 µg/mL (≈ 529 µM)	0.75 γ/larva	–	–
C=CC=CC1C(C(=O)OCc2cc3c(o2)CCCC3)C1(C)C (stereo not shown) [Present compound (68), 4,5-Tetramethylenefurfuryl 2',2'-dimethyl-3'-(1",3"-butadienyl)-cyclopropanecarboxylate]	110 µg/mL (≈ 366 µM)	0.26 γ/larva	–	–
